Test results reported in PubChem BioAssay (NCI).
Values joined by “and” are separate entries in the source; they are usually repeats but may differ in a detail not shown here. Equal values may be shown once.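 Dose response: 5 concentrations. Exposure: 48 h. Format: 96-well plates. Endpoint: linear interpolation; highest concentration if not reached. Here, GI50 denotes the concentration required for 50% inhibition of growth. At the TGI there is no net growth.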

Assays:
Assay in all cases: growth of human tumour cells (NCI), 48 h
[1] = tested on: HCC-2998 colon
[2] = tested on: LXFL 529 NSCLC
[3] = tested on: KM20L2 colon
[4] = tested on: T-47D breast
[5] = tested on: HOP-18 NSCLC
[6] = tested on: SNB-78 CNS
[7] = tested on: MDA-MB-231 breast
[8] = tested on: SW-620 colon
[9] = tested on: M19-MEL melanoma
[10] = tested on: DMS 273 small cell lung

Row | SMILES | TGI [1] | TGI [2] | TGI [3] | TGI [4] | TGI [5] | TGI [6] | TGI [7] | TGI [8] | TGI [9] | TGI [10] | GI50 [1] | GI50 [4] | GI50 [7] | GI50 [8]
1 | COc1ccc2c(c1)[n+]([O-])c(/C(C)=N/NC(N)=S)c(C)[n+]2[O-] | > 66.7 µM | > 100 µM | > 100 µM | > 100 µM | > 100 µM | > 100 µM | > 100 µM | > 100 µM | > 100 µM | – | – | – | – | –
2 | C=C(c1ccccc1)[C@@]1(O)CCCC[C@H]1NC(c1ccccc1)c1ccccc1 | 26.1 µM | 23.9 µM | 43.5 µM | – | 35.4 µM | 50.7 µM | – | 32.8 µM | 28.3 µM | 27.1 µM | – | – | – | –
3 | CCOC(=O)C1Nc2ccc([N+](=O)[O-])cc2[C@H]2OCC[C@@H]12 (stereo partly drawn) | > 100 µM | – | > 100 µM | – | > 100 µM | > 100 µM | – | > 100 µM | > 100 µM | > 100 µM | – | – | – | –
4 | CN1CCN2c3ccccc3CC(C#N)(C#N)C2C1 (stereo not drawn) | > 100 µM | > 100 µM | > 100 µM | – | > 100 µM | > 100 µM | – | > 100 µM | > 100 µM | > 100 µM | – | – | – | –
5 | CC12CCC(=O)N1c1cc([N+](=O)[O-])ccc1N2 (stereo not drawn) | – | > 100 µM | > 100 µM | – | > 100 µM | > 100 µM | – | > 100 µM | > 100 µM | > 100 µM | – | – | – | –
6 | CC(C)(C)c1cc(O)c2c(c1O)C(=O)CCC2 | > 100 µM | > 100 µM | > 100 µM | – | > 100 µM | > 100 µM | – | > 100 µM | 84.9 µM | > 100 µM | – | – | – | –
7 | C[C@]12CC[C@H](OC(=O)Cc3ccc(N(CCCl)CCCl)cc3)CC1CC[C@@H]1C2CC[C@]2(C)NC(=O)CCC12 (stereo partly drawn) | 34.8 µM | 25 µM | 23.7 µM | – | 31.4 µM | 39.3 µM | – | 24.7 µM | 28.8 µM | 20.5 µM | – | – | – | –
8 | CS(=O)(=O)OCCCCOS(C)(=O)=O | 201 µM and > 1000 µM | > 250 µM | > 235 µM | > 464 µM | > 200 µM | 233 µM | > 1000 µM | 250 µM and > 1000 µM | 230 µM | 245 µM | > 1000 µM | 336 µM | > 250 µM | > 1000 µM
9 | CCOC(=O)NC(=O)c1cn(CC(=O)NCC(=O)NCC(=O)N2CCN(CCn3c(C)nc(C(N)=O)c3N)CC2)c(=O)[nH]c1=O | > 100 µM | > 100 µM | > 100 µM | – | > 100 µM | > 100 µM | – | > 100 µM | > 100 µM | – | – | – | – | –
10 | N#CC1=C(c2ccccc2)NN(Cc2ccccc2)C(c2ccc(Cl)cc2)CC1=O (stereo not drawn) | – | > 100 µM | 75.8 µM | – | 73.5 µM | > 100 µM | – | 54.8 µM | – | 52.8 µM | – | – | – | –
11 | COC(=O)c1ccc(CS(=O)(=O)c2ccccc2)cc1 | > 100 µM | > 100 µM | > 100 µM | – | > 100 µM | > 100 µM | – | > 100 µM | > 100 µM | > 100 µM | – | – | – | –
12 | O=C1C[C@@H]2[C@@H](C=CC23CC3)N1O | > 100 µM | > 100 µM | > 100 µM | – | > 100 µM | > 100 µM | – | > 100 µM | > 100 µM | > 100 µM | – | – | – | –
13 | Cc1ccc2oc(=O)cc(CC(=O)O)c2c1 | > 100 µM | > 100 µM | > 100 µM | – | > 100 µM | – | – | > 100 µM | > 100 µM | > 100 µM | – | – | – | –
14 | CC(=O)O[C@H]1CC[C@@]2(C)C(=CC[C@@H]3C2CC[C@]2(C)C(=O)NC(=O)CC32)C1 (stereo partly drawn) | > 100 µM | > 100 µM | > 100 µM | – | > 100 µM | > 100 µM | – | > 100 µM | > 100 µM | > 100 µM | – | – | – | –
